This is an account of results in US6642392B1 (priority 1997, dated 2003).

Format in all cases: in vivo
One assay has as its system Phytophthora infestans. The conditions noted are these: for Test D disease control rating: tomato late blight; for Test D disease control rating (100 = 100% disease control, 0 = no disease control): tomato seedlings sprayed to run-off, inoculated the following day, rating relative to controls, unmarked compounds (standard test rate).
A further assay concerns Puccinia recondita. Briefly: Test B: wheat leaf rust, preventive spray on wheat seedlings. Particulars: for Test B disease control rating: wheat leaf rust; for Test B disease control rating (100 = 100% disease control, 0 = no disease control): wheat seedlings sprayed to run-off, inoculated the following day, rating relative to controls, unmarked compounds (standard test rate). Summed up:
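Wheat seedlings were sprayed to run-off with compound (3% acetone, 250 ppm Trem 014), then inoculated with P. recondita spores the next day. They were held 24 h saturated at 20 °C, then 6 days at 20 °C. Ratings are 0–100% disease control versus controls.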

The next assay deals with Pyricularia oryzae. Particulars: for Test C disease control rating: rice blast; for Test C disease control rating (100 = 100% disease control, 0 = no disease control): rice seedlings sprayed to run-off, inoculated the following day, rating relative to controls, unmarked compounds (standard test rate).
For assay [1], the system named is Eiysiphe graminis f. sp. tritici. The assay is described as follows: Test A: wheat powdery mildew, preventive spray on wheat seedlings. Particulars: for Test A disease control rating: wheat powdery mildew; for Test A disease control rating (100 = 100% disease control, 0 = no disease control): wheat seedlings sprayed to run-off, inoculated the following day, rating relative to controls, unmarked compounds (standard test rate). Summed up:
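Compounds (3% acetone, 250 ppm Trem 014) sprayed to run-off on wheat seedlings, inoculated next day with spore dust. Incubated 7 days at 20° C before disease rating, 0–100% control relative to untreated controls.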

Another assay concerns Botrytis cinerea. The assay is described as follows: Test E: gray mold, preventive spray on cucumber seedlings. The conditions noted are these: for Test E disease control rating: gray mold on cucumber; for Test E disease control rating (100 = 100% disease control, 0 = no disease control): cucumber seedlings sprayed to run-off, inoculated the following day, rating relative to controls, unmarked compounds (standard test rate). Summed up: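 Compounds in 3% acetone were suspended with 250 ppm Trem 014 surfactant and sprayed to run-off on cucumber seedlings. B. cinerea spores were inoculated next day, then 48 h saturated humidity at 20° C and 5 days at 20° C. Disease control rated 0–100% versus controls.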

Where [2] appears, read: 100 = 100% disease control, 0 = no control, unmarked entries (standard test concentration).
Where [3] appears, read: 100 = 100% disease control, 0 = no control relative to controls, unmarked entries (standard test concentration).

Read-outs that look alike come from different tables or passages of the source.

For `CCC1(C(=O)NC(C)COc2cc(Cl)cc(Cl)c2Cl)C(C)C1(Cl)Cl` (stereo not drawn) [compound 116], in the assay with Phytophthora infestans (tested at 40 ppm), the “Test D disease control rating” value was found to be 0%. For the same compound, the “Test B disease control rating” value in the assay with Puccinia recondita (tested at 40 ppm) stood at 0%. The “Test C disease control rating” value in the assay on Pyricularia oryzae (tested at 40 ppm) came to 0%. Moreover, the “Test A disease control rating” value in assay [1] (tested at 40 ppm) is listed as 21%. Also, the “Test E disease control rating” value in the assay on Botrytis cinerea (tested at 40 ppm) stood at 0%.
For `CC(COc1cc(C(C)(C)C)ccc1C#N)NC(=O)C(C#N)C(C)(C)C` (mixture of isomers) [compound 305], the “Test D disease control rating (100 = 100% disease control, 0 = no disease control)” value in the assay with Phytophthora infestans amounted to 0%. The “Test B disease control rating (100 = 100% disease control, 0 = no disease control)” value in the assay with Puccinia recondita is 0%. The “Test C disease control rating (100 = 100% disease control, 0 = no disease control)” value in the assay on Pyricularia oryzae is reported as 53%. The “Test A disease control rating (100 = 100% disease control, 0 = no disease control)” value in assay [1] worked out at 0%. For the same compound, the “Test E disease control rating (100 = 100% disease control, 0 = no disease control)” value with Botrytis cinerea is 0%.
In the case of `CCC(C#N)C(=O)N[C@H](C)[C@H](Oc1ccccc1C#N)c1ccccc1` (stereo partly drawn) [compound 304], the “Test D disease control rating (100 = 100% disease control, 0 = no disease control)” value in the assay with Phytophthora infestans turned out to be 0%. Also, the “Test B disease control rating (100 = 100% disease control, 0 = no disease control)” value in the assay with Puccinia recondita is on record as 0%. In addition, the “Test C disease control rating (100 = 100% disease control, 0 = no disease control)” value in the assay with Pyricularia oryzae is 97%. Also, in assay [1], the “Test A disease control rating (100 = 100% disease control, 0 = no disease control)” value was 0%. Further, the “Test E disease control rating (100 = 100% disease control, 0 = no disease control)” value in the assay on Botrytis cinerea worked out at 0%.
For `CCC1(C(=O)NCC=Cc2ccc(F)cc2F)C(C)C1(Cl)Cl` (stereo not drawn) [compound 162], the “Test D disease control rating” value in the assay on Phytophthora infestans (setting [2]) turned out to be 95%. In the assay on Puccinia recondita (setting [2]), the “Test B disease control rating” value was 0%. Further, in the assay with Pyricularia oryzae (setting [2]), the “Test C disease control rating” value came to 74%. Moreover, in assay [1] (setting [3]), the “Test A disease control rating” value amounted to 0%. In the assay on Botrytis cinerea (setting [2]), the “Test E disease control rating” value turned out to be 82%.
Take `C[C@H](COc1cc(F)ccc1F)NC(=O)C(C#N)C(C)(C)C` (single isomer, unassigned) [28b]: the “Test D disease control rating” value in the assay on Phytophthora infestans (setting [2]) stood at 96%. The “Test B disease control rating” value with Puccinia recondita (setting [2]) is listed as 28%. Also, the “Test C disease control rating” value with Pyricularia oryzae (setting [2]) turned out to be 100%. The “Test A disease control rating” value in assay [1] (setting [3]) turned out to be 86%. Besides, the “Test E disease control rating” value with Botrytis cinerea (setting [2]) is 0%.
On the same counts, the results for `C[C@H](COc1cccc(Cl)c1Cl)NC(=O)C(C#N)C(C)(C)C` (single isomer, unassigned) [31a] are 51%, 68%, 74%, 62% and 0%.
On to `CC(COc1ccccc1)NC(=O)C1(C)CC1(Cl)Cl` (mixture of isomers) [compound 311], for which the “Test D disease control rating (100 = 100% disease control, 0 = no disease control)” value with Phytophthora infestans stood at 0%. The “Test B disease control rating (100 = 100% disease control, 0 = no disease control)” value in the assay on Puccinia recondita is reported as 0%. The “Test C disease control rating (100 = 100% disease control, 0 = no disease control)” value with Pyricularia oryzae stood at 0%. For the same compound, the “Test A disease control rating (100 = 100% disease control, 0 = no disease control)” value in assay [1] is 84%. The “Test E disease control rating (100 = 100% disease control, 0 = no disease control)” value in the assay with Botrytis cinerea is 0%.
For `C[C@H](COc1ccccc1)NC(=O)C(C#N)C(C)(C)C` (single isomer, unassigned) [1d], the “Test D disease control rating” value with Phytophthora infestans (setting [2]) is 0%. For the same compound, the “Test B disease control rating” value in the assay on Puccinia recondita (setting [2]) came out at 0%. Also, the “Test C disease control rating” value in the assay on Pyricularia oryzae (setting [2]) is 100%. Further, in assay [1] (setting [3]), the “Test A disease control rating” value was determined as 92%. Moreover, in the assay with Botrytis cinerea (setting [2]), the “Test E disease control rating” value was determined as 0%.
As to `CCC1(C(=O)NC(C)COc2cccc(Cl)c2)C(C)C1(Cl)Cl` (mixture of isomers) [82a], the “Test D disease control rating” value in the assay on Phytophthora infestans (tested at 40 ppm) was found to be 43%. For the same compound, the “Test B disease control rating” value in the assay on Puccinia recondita (tested at 40 ppm) amounted to 0%. In addition, the “Test C disease control rating” value with Pyricularia oryzae (tested at 40 ppm) came out at 53%. The “Test A disease control rating” value in assay [1] (tested at 40 ppm) was determined as 0%. Also, the “Test E disease control rating” value in the assay on Botrytis cinerea (tested at 40 ppm) is listed as 0%.
For `CC(COc1c(Cl)cccc1C#N)NC(=O)C(C#N)C(C)C(C)(C)C` (mixture of isomers) [compound 281], the “Test D disease control rating (100 = 100% disease control, 0 = no disease control)” value with Phytophthora infestans was 0%. Besides, in the assay with Puccinia recondita, the “Test B disease control rating (100 = 100% disease control, 0 = no disease control)” value is 0%. In addition, the “Test C disease control rating (100 = 100% disease control, 0 = no disease control)” value in the assay with Pyricularia oryzae stood at 53%. Further, in assay [1], the “Test A disease control rating (100 = 100% disease control, 0 = no disease control)” value was determined as 56%. For the same compound, the “Test E disease control rating (100 = 100% disease control, 0 = no disease control)” value in the assay on Botrytis cinerea was 0%.
On to `CC(COc1ccccc1Cl)NC(=O)C(C#N)C(C)(C)C` (mixture of isomers) [5a], for which the “Test D disease control rating” value in the assay on Phytophthora infestans (setting [2]) is recorded as 0%. For the same compound, in the assay with Puccinia recondita (setting [2]), the “Test B disease control rating” value came to 68%. The “Test C disease control rating” value in the assay on Pyricularia oryzae (setting [2]) is given as 0%. In assay [1] (setting [3]), the “Test A disease control rating” value is 0%. In addition, in the assay on Botrytis cinerea (setting [2]), the “Test E disease control rating” value turned out to be 0%.
With `C=CC(C)(CF)C(C#N)C(=O)NC(C)COc1cc(F)ccc1Cl` (mixture of isomers) [compound 220], in the assay with Phytophthora infestans, the “Test D disease control rating (100 = 100% disease control, 0 = no disease control)” value worked out at 85%. In the assay on Puccinia recondita, the “Test B disease control rating (100 = 100% disease control, 0 = no disease control)” value amounted to 0%. For the same compound, the “Test C disease control rating (100 = 100% disease control, 0 = no disease control)” value with Pyricularia oryzae was found to be 100%. For the same compound, in assay [1], the “Test A disease control rating (100 = 100% disease control, 0 = no disease control)” value is 0%. The “Test E disease control rating (100 = 100% disease control, 0 = no disease control)” value in the assay with Botrytis cinerea amounted to 0%.
With `CCC1(C(=O)NC(C)C=Cc2ccc(F)cc2)C(C)C1(Cl)Cl` (mixture of isomers) [compound 261], the “Test D disease control rating (100 = 100% disease control, 0 = no disease control)” value in the assay on Phytophthora infestans is recorded as 54%. Moreover, in the assay with Puccinia recondita, the “Test B disease control rating (100 = 100% disease control, 0 = no disease control)” value amounted to 0%. For the same compound, the “Test C disease control rating (100 = 100% disease control, 0 = no disease control)” value in the assay on Pyricularia oryzae is on record as 100%. In assay [1], the “Test A disease control rating (100 = 100% disease control, 0 = no disease control)” value turned out to be 0%. Also, the “Test E disease control rating (100 = 100% disease control, 0 = no disease control)” value in the assay with Botrytis cinerea is 0%.
Take `CC(COc1c(Cl)cccc1C#N)NC(=O)C(C#N)C(C)(C)C` (mixture of isomers) [compound 210]: in the assay on Phytophthora infestans (setting [2]), the “Test D disease control rating” value amounted to 0%. Besides, the “Test B disease control rating” value in the assay on Puccinia recondita (setting [2]) came to 0%. The “Test C disease control rating” value in the assay on Pyricularia oryzae (setting [2]) is recorded as 91%. The “Test A disease control rating” value in assay [1] (setting [3]) came out at 0%. Further, in the assay on Botrytis cinerea (setting [2]), the “Test E disease control rating” value turned out to be 0%.
Turning to `CC(COc1cccc(Cl)c1C#N)NC(=O)C(C#N)C(C)C(C)(C)C` (mixture of isomers) [compound 64], the “Test D disease control rating” value in the assay with Phytophthora infestans (setting [2]) was 2%. Also, the “Test B disease control rating” value with Puccinia recondita (setting [2]) was determined as 0%. The “Test C disease control rating” value with Pyricularia oryzae (setting [2]) turned out to be 53%. Further, the “Test A disease control rating” value in assay [1] (setting [3]) worked out at 0%. Also, the “Test E disease control rating” value in the assay on Botrytis cinerea (setting [2]) was determined as 0%.
On to `CC(COc1ccccc1CF)NC(=O)C(C#N)C(C)(C)C` (mixture of isomers) [compound 175], for which, in the assay with Phytophthora infestans (tested at 40 ppm), the “Test D disease control rating” value was 33%. Further, the “Test B disease control rating” value with Puccinia recondita (tested at 40 ppm) was determined as 0%. For the same compound, the “Test C disease control rating” value with Pyricularia oryzae (tested at 40 ppm) turned out to be 74%. In addition, the “Test A disease control rating” value in assay [1] (tested at 40 ppm) was 0%. The “Test E disease control rating” value in the assay with Botrytis cinerea (tested at 40 ppm) was found to be 0%.
With `CC(COc1ccccc1SC(F)(F)C(F)F)NC(=O)C(C#N)C(C)(C)C` (mixture of isomers) [compound 202], the “Test D disease control rating” value in the assay with Phytophthora infestans (setting [2]) was 0%. Also, in the assay with Puccinia recondita (setting [2]), the “Test B disease control rating” value is 0%. Also, the “Test C disease control rating” value in the assay with Pyricularia oryzae (setting [2]) is recorded as 53%. Moreover, the “Test A disease control rating” value in assay [1] (setting [3]) stood at 0%. Also, in the assay with Botrytis cinerea (setting [2]), the “Test E disease control rating” value is 0%.
Take `CC(COc1c(Cl)cccc1Cl)NC(=O)C(C#N)C(C)(C)C` (mixture of isomers) [compound 34]: the “Test D disease control rating” value in the assay with Phytophthora infestans (setting [2]) is reported as 0%. Besides, the “Test B disease control rating” value with Puccinia recondita (setting [2]) stood at 85%. Moreover, the “Test C disease control rating” value in the assay with Pyricularia oryzae (setting [2]) is reported as 91%. Besides, the “Test A disease control rating” value in assay [1] (setting [3]) came to 62%. For the same compound, in the assay on Botrytis cinerea (setting [2]), the “Test E disease control rating” value came out at 0%.
